Experimental data reported in the supplement of paper PMC10307832.

How the values were obtained:
Assay in all cases: relative viability (nuclei count vs DMSO), 5 days (fraction); higher = more cells survive
NCI-H1793 = test system: NCI-H1793
Outline: (§1)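 Dosing by pin tool came one day after lung cancer cell lines were seeded in 1536-well plates, using either one drug or a fixed anchor-drug dose plus five library-drug doses (not always all listed) in √10 steps. After 5 days, nuclei were counted on 4× images. Relative viability is treated-well nuclei count divided by vehicle-well nuclei count, and values are medians of duplicate plates.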

NCI-H1395 = test system: NCI-H1395
Outline: as §1

NCI-H2085 = test system: NCI-H2085
Outline: as §1

NCI-H2023 = test system: NCI-H2023
Outline: as §1

H3255 = test system: H3255
Outline: as §1

EPLC-272H = test system: EPLC-272H
Outline: as §1

NCI-H650 = test system: NCI-H650
Outline: as §1

NCI-H1651 = test system: NCI-H1651
Outline: as §1

LU99A = test system: LU99A
Outline: as §1

LCLC-103H = test system: LCLC-103H
Outline: as §1

NCI-H1944 = test system: NCI-H1944
Outline: as §1

SK-MES-1 = test system: SK-MES-1
Outline: as §1

HCC-44 = test system: HCC-44
Outline: as §1

NCI-H2405 = test system: NCI-H2405
Outline: as §1

EMC-BAC-2 = test system: EMC-BAC-2
Outline: as §1

NCI-H838 = test system: NCI-H838
Outline: as §1

ChaGo-K-1 = test system: ChaGo-K-1
Outline: as §1

NCI-H520 = test system: NCI-H520
Outline: as §1

COR-L23 = test system: COR-L23
Outline: as §1

HCC-827 = test system: HCC-827
Outline: as §1

Structure (SMILES): CC(=O)O[C@@]12CO[C@@H]1C[C@H](O)[C@@]1(C)C(=O)[C@H](O)C3=C(C)[C@@H](OC(=O)[C@H](O)[C@@H](NC(=O)OC(C)(C)C)c4ccccc4)C[C@@](O)([C@@H](OC(=O)c4ccccc4)[C@H]21)C3(C)C [Docetaxel] + Cc1cc(Nc2cc(N3CCN(C)CC3)nc(Sc3ccc(NC(=O)C4CC4)cc3)n2)n[nH]1 [Tozasertib] (partner 0.1 µM)
- relative viability (NCI-H1793; first compound 0.0002 µM): 0.372
- relative viability (NCI-H1793; first compound 0.000632 µM): 0.285
- relative viability (NCI-H1793; first compound 0.002 µM): 0.197
- relative viability (NCI-H1793; first compound 0.006325 µM): 0.195
- relative viability (NCI-H1793; first compound 0.02 µM): 0.136
- relative viability (NCI-H1395; first compound 0.0002 µM): 0.698
- relative viability (NCI-H1395; first compound 0.000632 µM): 0.753
- relative viability (NCI-H1395; first compound 0.002 µM): 0.59
- relative viability (NCI-H1395; first compound 0.006325 µM): 0.372
- relative viability (NCI-H1395; first compound 0.02 µM): 0.325
- relative viability (NCI-H2085; first compound 0.0002 µM): 0.743
- relative viability (NCI-H2085; first compound 0.000632 µM): 0.779
- relative viability (NCI-H2085; first compound 0.002 µM): 0.664
- relative viability (NCI-H2085; first compound 0.006325 µM): 0.481
- relative viability (NCI-H2085; first compound 0.02 µM): 0.322
- relative viability (NCI-H2023; first compound 0.0002 µM): 0.317
- relative viability (NCI-H2023; first compound 0.000632 µM): 0.288
- relative viability (NCI-H2023; first compound 0.002 µM): 0.11
- relative viability (NCI-H2023; first compound 0.006325 µM): 0.158
- relative viability (NCI-H2023; first compound 0.02 µM): 0.0697
- relative viability (H3255; first compound 0.0002 µM): 0.83
- relative viability (H3255; first compound 0.000632 µM): 0.507
- relative viability (H3255; first compound 0.002 µM): 0.241
- relative viability (H3255; first compound 0.006325 µM): 0.264
- relative viability (H3255; first compound 0.02 µM): 0.236
- relative viability (EPLC-272H; first compound 0.0002 µM): 0.219
- relative viability (EPLC-272H; first compound 0.000632 µM): 0.129
- relative viability (EPLC-272H; first compound 0.002 µM): 0.132
- relative viability (EPLC-272H; first compound 0.006325 µM): 0.0975
- relative viability (EPLC-272H; first compound 0.02 µM): 0.104
- relative viability (NCI-H650; first compound 0.0002 µM): 0.666
- relative viability (NCI-H650; first compound 0.000632 µM): 0.381
- relative viability (NCI-H650; first compound 0.002 µM): 0.25
- relative viability (NCI-H650; first compound 0.006325 µM): 0.25
- relative viability (NCI-H650; first compound 0.02 µM): 0.182
- relative viability (NCI-H1651; first compound 0.0002 µM): 0.716
- relative viability (NCI-H1651; first compound 0.000632 µM): 0.717
- relative viability (NCI-H1651; first compound 0.002 µM): 0.187
- relative viability (NCI-H1651; first compound 0.006325 µM): 0.189
- relative viability (LU99A; first compound 0.0002 µM): 0.262
- relative viability (LU99A; first compound 0.000632 µM): 0.289
- relative viability (LU99A; first compound 0.002 µM): 0.236
- relative viability (LU99A; first compound 0.006325 µM): 0.307
- relative viability (LU99A; first compound 0.02 µM): 0.211
- relative viability (LCLC-103H; first compound 0.0002 µM): 0.48
- relative viability (LCLC-103H; first compound 0.000632 µM): 0.39
- relative viability (LCLC-103H; first compound 0.002 µM): 0.358
- relative viability (LCLC-103H; first compound 0.006325 µM): 0.377
- relative viability (LCLC-103H; first compound 0.02 µM): 0.296
- relative viability (NCI-H1944; first compound 0.0002 µM): 0.23
- relative viability (NCI-H1944; first compound 0.000632 µM): 0.223
- relative viability (NCI-H1944; first compound 0.002 µM): 0.235
- relative viability (NCI-H1944; first compound 0.006325 µM): 0.194
- relative viability (NCI-H1944; first compound 0.02 µM): 0.15
- relative viability (SK-MES-1; first compound 0.0002 µM): 0.974
- relative viability (SK-MES-1; first compound 0.000632 µM): 0.459
- relative viability (SK-MES-1; first compound 0.002 µM): 0.252
- relative viability (SK-MES-1; first compound 0.006325 µM): 0.166
- relative viability (SK-MES-1; first compound 0.02 µM): 0.134
- relative viability (HCC-44; first compound 0.0002 µM): 0.93
- relative viability (HCC-44; first compound 0.000632 µM): 0.442
- relative viability (HCC-44; first compound 0.002 µM): 0.41
- relative viability (HCC-44; first compound 0.006325 µM): 0.295
- relative viability (HCC-44; first compound 0.02 µM): 0.158
- relative viability (NCI-H2405; first compound 0.0002 µM): 0.699
- relative viability (NCI-H2405; first compound 0.000632 µM): 0.556
- relative viability (NCI-H2405; first compound 0.002 µM): 0.461
- relative viability (NCI-H2405; first compound 0.006325 µM): 0.361
- relative viability (NCI-H2405; first compound 0.02 µM): 0.278
- relative viability (EMC-BAC-2; first compound 0.0002 µM): 0.296
- relative viability (EMC-BAC-2; first compound 0.000632 µM): 0.321
- relative viability (EMC-BAC-2; first compound 0.006325 µM): 0.26
- relative viability (EMC-BAC-2; first compound 0.02 µM): 0.185
- relative viability (NCI-H838; first compound 0.0002 µM): 0.236
- relative viability (NCI-H838; first compound 0.000632 µM): 0.27
- relative viability (NCI-H838; first compound 0.002 µM): 0.258
- relative viability (NCI-H838; first compound 0.006325 µM): 0.28
- relative viability (NCI-H838; first compound 0.02 µM): 0.193
- relative viability (ChaGo-K-1; first compound 0.0002 µM): 0.218
- relative viability (ChaGo-K-1; first compound 0.002 µM): 0.201
- relative viability (ChaGo-K-1; first compound 0.006325 µM): 0.199
- relative viability (ChaGo-K-1; first compound 0.02 µM): 0.185
- relative viability (NCI-H520; first compound 0.0002 µM): 0.418
- relative viability (NCI-H520; first compound 0.000632 µM): 0.468
- relative viability (NCI-H520; first compound 0.002 µM): 0.445
- relative viability (NCI-H520; first compound 0.006325 µM): 0.376
- relative viability (NCI-H520; first compound 0.02 µM): 0.317
- relative viability (COR-L23; first compound 0.0002 µM): 0.199
- relative viability (COR-L23; first compound 0.000632 µM): 0.21
- relative viability (COR-L23; first compound 0.002 µM): 0.141
- relative viability (COR-L23; first compound 0.006325 µM): 0.153
- relative viability (COR-L23; first compound 0.02 µM): 0.133
- relative viability (HCC-827; first compound 0.0002 µM): 0.406
- relative viability (HCC-827; first compound 0.000632 µM): 0.412
- relative viability (HCC-827; first compound 0.002 µM): 0.328
- relative viability (HCC-827; first compound 0.006325 µM): 0.332
- relative viability (HCC-827; first compound 0.02 µM): 0.295
